Test results taken from ChEMBL document CHEMBL1201862, “PubChem BioAssay data set” (2004).
Active and inactive are the calls of the source.

Legend:
[1] = target: Eukaryotic translation initiation factor 4H (Homo sapiens, UniProt Q15056); assay: eIF4H binding inhibition – biochemical, uHTS, fluorescence polarization, translation initiation inhibitor project, primary screen (AID 2012)
[2] = target: Polyadenylate-binding protein 1 (Homo sapiens, UniProt P11940); assay: blockers of PABP interaction with poly(A) – biochemical, fluorescence polarization, […] (AID 2014)
Sequence of Polyadenylate-binding protein 1 (P11940 whole entry): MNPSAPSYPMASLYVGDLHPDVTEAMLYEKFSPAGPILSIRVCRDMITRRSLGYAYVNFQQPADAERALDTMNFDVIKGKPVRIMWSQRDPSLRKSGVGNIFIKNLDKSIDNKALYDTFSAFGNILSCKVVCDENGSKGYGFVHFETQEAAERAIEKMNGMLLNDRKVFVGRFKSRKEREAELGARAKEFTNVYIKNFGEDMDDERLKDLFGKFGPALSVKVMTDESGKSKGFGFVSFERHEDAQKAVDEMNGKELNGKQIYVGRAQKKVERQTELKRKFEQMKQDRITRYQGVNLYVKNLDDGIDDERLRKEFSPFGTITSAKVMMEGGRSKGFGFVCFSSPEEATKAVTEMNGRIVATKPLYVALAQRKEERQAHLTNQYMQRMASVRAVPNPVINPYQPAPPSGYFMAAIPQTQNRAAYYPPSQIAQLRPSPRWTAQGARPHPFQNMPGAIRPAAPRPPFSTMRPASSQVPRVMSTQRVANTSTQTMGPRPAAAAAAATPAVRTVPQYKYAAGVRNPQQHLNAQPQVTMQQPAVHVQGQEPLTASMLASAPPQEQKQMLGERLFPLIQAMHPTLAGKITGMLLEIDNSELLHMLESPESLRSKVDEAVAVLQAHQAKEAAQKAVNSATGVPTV

[3] = test system: HeLa; assay: viability loss in HeLa cells – cell-based, 24 h, cherry-picked samples, cytotoxicity control, dose response (AID 504726); assay type: functional; settings: Homo sapiens;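 note: potency for cytotoxicity as loss of luminescence signal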
[4] = target: Tumor necrosis factor (Homo sapiens, UniProt P01375); assay: analog potency on TNFa NF-kB signaling – cell-based, revised, SAR follow-up (AID 2337); assay type: functional
Sequence of Tumor necrosis factor (P01375 whole entry, the tested form may be a part): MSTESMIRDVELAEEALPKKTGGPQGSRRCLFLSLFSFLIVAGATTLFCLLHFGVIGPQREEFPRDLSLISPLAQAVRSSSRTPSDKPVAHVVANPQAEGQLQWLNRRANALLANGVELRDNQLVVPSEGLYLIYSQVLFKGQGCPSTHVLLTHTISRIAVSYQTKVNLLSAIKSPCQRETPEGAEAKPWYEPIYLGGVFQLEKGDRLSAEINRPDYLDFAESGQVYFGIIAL

[5] = target: T1, Nucleotide-binding oligomerization domain-containing protein 1 (Homo sapiens, UniProt Q9Y239); assay: blockers of NOD1 pathway activity – revised, SAR follow-up (AID 2333); assay type: functional
T1 sequence (Q9Y239 whole entry): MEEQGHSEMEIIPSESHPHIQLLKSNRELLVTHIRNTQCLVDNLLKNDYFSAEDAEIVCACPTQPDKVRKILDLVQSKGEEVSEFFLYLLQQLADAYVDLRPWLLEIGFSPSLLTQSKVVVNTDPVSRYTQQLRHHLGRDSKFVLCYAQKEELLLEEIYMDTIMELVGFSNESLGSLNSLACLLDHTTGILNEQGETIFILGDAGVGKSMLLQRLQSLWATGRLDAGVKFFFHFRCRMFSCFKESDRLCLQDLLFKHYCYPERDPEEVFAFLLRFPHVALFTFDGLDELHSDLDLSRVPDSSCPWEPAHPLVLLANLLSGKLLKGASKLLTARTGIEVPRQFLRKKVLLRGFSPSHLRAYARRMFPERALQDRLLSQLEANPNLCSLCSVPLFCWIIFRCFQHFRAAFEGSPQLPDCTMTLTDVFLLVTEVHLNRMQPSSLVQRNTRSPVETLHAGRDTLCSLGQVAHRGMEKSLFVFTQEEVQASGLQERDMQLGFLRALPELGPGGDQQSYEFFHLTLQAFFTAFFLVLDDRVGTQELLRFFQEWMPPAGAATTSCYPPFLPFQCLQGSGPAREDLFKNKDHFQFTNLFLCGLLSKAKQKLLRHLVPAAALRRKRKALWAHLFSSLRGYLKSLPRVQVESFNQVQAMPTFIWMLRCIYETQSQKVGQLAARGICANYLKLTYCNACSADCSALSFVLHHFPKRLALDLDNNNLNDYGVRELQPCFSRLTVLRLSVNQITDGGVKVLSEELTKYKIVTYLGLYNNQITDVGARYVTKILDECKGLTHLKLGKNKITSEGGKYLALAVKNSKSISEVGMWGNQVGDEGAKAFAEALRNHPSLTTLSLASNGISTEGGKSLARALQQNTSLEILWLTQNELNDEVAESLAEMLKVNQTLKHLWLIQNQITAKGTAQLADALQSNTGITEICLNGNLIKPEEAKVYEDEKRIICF

[6] = target: Nucleotide-binding oligomerization domain-containing protein 2 (Homo sapiens, UniProt Q9HC29); assay: PubChem AID 2334; assay type: functional
Sequence of Nucleotide-binding oligomerization domain-containing protein 2 (Q9HC29 whole entry, the tested form may be a part): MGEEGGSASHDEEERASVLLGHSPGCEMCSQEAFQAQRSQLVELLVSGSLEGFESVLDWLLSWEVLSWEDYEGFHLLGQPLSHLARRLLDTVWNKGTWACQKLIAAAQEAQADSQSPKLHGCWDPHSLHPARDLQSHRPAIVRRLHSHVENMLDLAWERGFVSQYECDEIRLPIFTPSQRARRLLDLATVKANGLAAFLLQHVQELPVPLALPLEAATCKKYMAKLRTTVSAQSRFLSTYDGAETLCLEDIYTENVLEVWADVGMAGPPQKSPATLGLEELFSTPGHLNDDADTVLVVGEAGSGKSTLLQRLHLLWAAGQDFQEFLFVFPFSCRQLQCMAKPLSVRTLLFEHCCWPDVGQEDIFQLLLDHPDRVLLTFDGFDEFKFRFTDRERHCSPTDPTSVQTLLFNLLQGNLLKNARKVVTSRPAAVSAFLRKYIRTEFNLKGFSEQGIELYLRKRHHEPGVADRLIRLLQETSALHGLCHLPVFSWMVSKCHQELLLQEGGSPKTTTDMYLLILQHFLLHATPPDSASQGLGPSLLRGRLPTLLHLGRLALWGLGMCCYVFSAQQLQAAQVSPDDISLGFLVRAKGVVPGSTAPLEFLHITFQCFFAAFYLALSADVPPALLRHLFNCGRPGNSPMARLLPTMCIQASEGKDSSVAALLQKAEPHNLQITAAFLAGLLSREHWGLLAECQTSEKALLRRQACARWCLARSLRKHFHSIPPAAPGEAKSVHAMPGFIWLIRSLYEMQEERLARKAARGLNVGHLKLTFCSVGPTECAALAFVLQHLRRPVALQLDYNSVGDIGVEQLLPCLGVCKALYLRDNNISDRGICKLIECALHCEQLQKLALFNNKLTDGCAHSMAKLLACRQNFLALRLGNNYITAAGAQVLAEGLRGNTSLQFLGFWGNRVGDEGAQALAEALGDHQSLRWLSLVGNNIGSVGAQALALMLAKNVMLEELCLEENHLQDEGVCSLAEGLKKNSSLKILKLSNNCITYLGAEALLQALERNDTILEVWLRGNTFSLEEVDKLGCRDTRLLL

[7] = test system: HEK293; assay: cells; settings: Homo sapiens;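 note: cells exposed to compound for 14 hours overnight before viability readout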
[8] = target: T2, Bcl-2-like protein 10 (Homo sapiens, UniProt Q9HD36); assay: Bcl-B/TR3 peptide binding disruption – biochemical, fluorescence polarization, FITC-TR3 peptide, selectivity assay for Bfl-1 inhibitor project, primary screen (AID 748);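 note: fluorescence polarization from a fluorescein-labelled TR3 peptide binding purified Bcl-B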
T2 sequence (Q9HD36 whole entry): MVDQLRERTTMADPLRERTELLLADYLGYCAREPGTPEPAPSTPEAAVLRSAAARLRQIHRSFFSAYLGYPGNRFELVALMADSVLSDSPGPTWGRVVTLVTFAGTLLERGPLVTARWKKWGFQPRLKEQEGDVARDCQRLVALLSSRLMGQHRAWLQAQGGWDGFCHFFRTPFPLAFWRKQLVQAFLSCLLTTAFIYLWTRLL

[9] = test system: Streptococcus sp. 'group A'; assay: Streptococcus pyogenes SK(-)GAS viability under kanamycin – luminescence, BacTiterGlo, confirmation, counter-screen for streptokinase expression inhibitor project, dose response (AID 1900); assay type: functional, organism-based
[10] = target: T3, Streptokinase A (Streptococcus pyogenes serotype M1, UniProt P10520); assay: viability-normalized secreted streptokinase activity reduction – plasminogen activation absorbance, OD405, dose response (AID 1914); assay type: functional, Streptococcus pyogenes M1 GAS;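 note: secreted streptokinase activity via plasminogen activation per viability signal from cell pellet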
T3 sequence (P10520 whole entry): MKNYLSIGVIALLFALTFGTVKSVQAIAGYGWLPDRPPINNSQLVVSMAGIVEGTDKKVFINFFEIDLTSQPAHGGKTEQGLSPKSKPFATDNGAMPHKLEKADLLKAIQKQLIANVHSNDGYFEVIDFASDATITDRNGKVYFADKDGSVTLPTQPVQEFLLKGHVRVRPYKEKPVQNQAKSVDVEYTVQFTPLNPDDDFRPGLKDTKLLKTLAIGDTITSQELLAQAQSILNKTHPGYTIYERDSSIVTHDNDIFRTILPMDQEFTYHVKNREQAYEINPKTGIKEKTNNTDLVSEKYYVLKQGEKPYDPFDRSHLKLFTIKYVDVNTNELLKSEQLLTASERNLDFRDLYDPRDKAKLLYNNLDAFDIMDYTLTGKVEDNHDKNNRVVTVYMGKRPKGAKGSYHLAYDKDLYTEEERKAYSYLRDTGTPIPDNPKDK

[11] = test system: Streptococcus; assay: GAS UMAA2166 growth inhibition – luminescence, BacTiterGlo, counter-screen for streptokinase expression inhibitor project, dose response (AID 1915); assay type: functional, organism-based;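 note: potency for reduction of bacterial viability or growth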
[12] = target: Beta-galactosidase (Escherichia coli, UniProt Q8VNN2); assay: detection-enzyme interference by beta-gal modulators – biochemical, E. coli enzyme, set 3, artefact control for CCR6 antagonist project, dose response (AID 504712); assay type: functional
Sequence of Beta-galactosidase (Q8VNN2 whole entry): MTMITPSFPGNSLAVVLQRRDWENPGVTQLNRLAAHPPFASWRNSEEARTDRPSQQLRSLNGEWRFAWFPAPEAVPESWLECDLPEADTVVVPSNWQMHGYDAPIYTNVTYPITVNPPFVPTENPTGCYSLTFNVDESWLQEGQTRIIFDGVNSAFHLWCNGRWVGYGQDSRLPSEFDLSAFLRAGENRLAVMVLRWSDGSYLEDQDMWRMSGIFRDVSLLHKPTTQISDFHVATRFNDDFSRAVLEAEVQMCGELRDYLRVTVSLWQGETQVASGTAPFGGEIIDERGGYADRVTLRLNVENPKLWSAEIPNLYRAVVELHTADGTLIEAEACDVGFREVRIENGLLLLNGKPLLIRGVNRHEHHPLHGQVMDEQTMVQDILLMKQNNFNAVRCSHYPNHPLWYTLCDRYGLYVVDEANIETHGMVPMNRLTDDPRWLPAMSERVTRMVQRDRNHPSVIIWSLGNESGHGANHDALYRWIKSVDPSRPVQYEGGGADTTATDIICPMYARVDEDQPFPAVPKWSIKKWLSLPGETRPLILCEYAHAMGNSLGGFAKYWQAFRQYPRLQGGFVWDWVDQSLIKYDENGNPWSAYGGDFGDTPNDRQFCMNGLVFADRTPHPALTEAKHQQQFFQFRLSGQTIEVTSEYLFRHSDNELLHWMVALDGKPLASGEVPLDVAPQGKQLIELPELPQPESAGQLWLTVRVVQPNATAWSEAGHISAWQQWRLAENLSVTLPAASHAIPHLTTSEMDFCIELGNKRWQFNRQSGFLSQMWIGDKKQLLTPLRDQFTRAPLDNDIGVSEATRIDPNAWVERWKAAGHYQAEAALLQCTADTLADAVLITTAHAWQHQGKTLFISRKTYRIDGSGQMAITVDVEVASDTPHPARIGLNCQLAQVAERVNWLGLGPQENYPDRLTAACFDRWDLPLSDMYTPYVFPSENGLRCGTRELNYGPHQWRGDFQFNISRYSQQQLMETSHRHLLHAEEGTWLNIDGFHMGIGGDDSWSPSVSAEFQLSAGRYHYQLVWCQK

[13] = viability of uninfected HEp-2 cells – cell-based, HTS, cytotoxicity control for RSV inhibitor project, dose response (AID 2410); assay type: functional; settings: human respiratory syncytial virus
[14] = target: DNA dC->dU-editing enzyme APOBEC-3G (Homo sapiens, UniProt Q9HC16); assay: Dose Response confirmation of small molecule APOBEC3G DNA Deaminase Inhibitors via a fluorescence-based single-stranded DNA deaminase assay. [Related pubchem assays (depositor defined):AID493012, AID493028]; assay type: functional
[15] = cells
[16] = target: CAAX prenyl protease 2 (Saccharomyces cerevisiae S288c, UniProt Q03530); assay type: biochemical
Sequence of CAAX prenyl protease 2 (Q03530 whole entry): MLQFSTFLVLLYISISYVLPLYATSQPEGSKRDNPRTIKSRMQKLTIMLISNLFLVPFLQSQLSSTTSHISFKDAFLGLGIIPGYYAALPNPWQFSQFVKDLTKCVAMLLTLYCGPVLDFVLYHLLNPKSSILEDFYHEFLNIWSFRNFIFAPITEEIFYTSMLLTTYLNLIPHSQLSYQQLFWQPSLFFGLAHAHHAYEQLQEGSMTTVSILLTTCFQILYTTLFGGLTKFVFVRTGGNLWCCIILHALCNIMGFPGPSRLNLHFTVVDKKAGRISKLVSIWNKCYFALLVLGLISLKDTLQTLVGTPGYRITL

[17] = NIH-3T3 fibroblast cytotoxicity, dose response, cytotoxicity control, cell-based, fluorescence, Alamar Blue, secondary assay (AID 2327); assay type: functional;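 note: NIH-3T3 mouse fibroblasts cultured with fluconazole at 8 µg/mL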
[18] = Luminescence Cell-Based Dose Confirmation HTS to Identify Activators of 5'UTR Stem-Loop Driven Alpha-Synuclein mRNA Translation in H4 Neuroglioblastoma Cells. [Related pubchem assays: 1829 (Project Summary), 1814 (Primary HTS)]; assay type: functional
[19] = Luminescence Cell-Based Dose Response HTS to Identify Activators of Luciferase Translation or Activity in H4 […] Cells. [Related pubchem assays: 1829 (Project Summary), 1814 (Primary HTS)]; assay type: functional
[20] = test system: H4; assay: Luminescence Cell-Based Dose Response HTS to Identify Activators of 5'UTR Stem-Loop Driven Prion Protein mRNA Translation in H4 Neuroglioblastoma Cells. [Related pubchem assays: 1829 (Project Summary), 1814 (Primary HTS)]; assay type: functional; settings: Homo sapiens
[21] = THP-1 cell cytotoxicity, dose response, cytotoxicity control for non-replicating M. tuberculosis project (AID 489025); assay type: functional
[22] = HepG2 cell cytotoxicity, dose response, cytotoxicity control for non-replicating M. tuberculosis project (AID 489018); assay type: functional; settings: Mycobacterium tuberculosis
[23] = Vero E6 cell cytotoxicity, dose response, cytotoxicity control for non-replicating M. tuberculosis project, secondary assay (AID 492998); assay type: functional, VeroE6; settings: Vero C1008
[24] = target: T4, Short transient receptor potential channel 4 (Mus musculus, UniProt Q9QUQ5); assay: calcium entry via TRPC4 opening agents – cell-based, HEK293 TRPC4/mu-opioid, Fluo-4 calcium, dose response (AID 434937); assay type: functional
T4 sequence (Q9QUQ5 whole entry): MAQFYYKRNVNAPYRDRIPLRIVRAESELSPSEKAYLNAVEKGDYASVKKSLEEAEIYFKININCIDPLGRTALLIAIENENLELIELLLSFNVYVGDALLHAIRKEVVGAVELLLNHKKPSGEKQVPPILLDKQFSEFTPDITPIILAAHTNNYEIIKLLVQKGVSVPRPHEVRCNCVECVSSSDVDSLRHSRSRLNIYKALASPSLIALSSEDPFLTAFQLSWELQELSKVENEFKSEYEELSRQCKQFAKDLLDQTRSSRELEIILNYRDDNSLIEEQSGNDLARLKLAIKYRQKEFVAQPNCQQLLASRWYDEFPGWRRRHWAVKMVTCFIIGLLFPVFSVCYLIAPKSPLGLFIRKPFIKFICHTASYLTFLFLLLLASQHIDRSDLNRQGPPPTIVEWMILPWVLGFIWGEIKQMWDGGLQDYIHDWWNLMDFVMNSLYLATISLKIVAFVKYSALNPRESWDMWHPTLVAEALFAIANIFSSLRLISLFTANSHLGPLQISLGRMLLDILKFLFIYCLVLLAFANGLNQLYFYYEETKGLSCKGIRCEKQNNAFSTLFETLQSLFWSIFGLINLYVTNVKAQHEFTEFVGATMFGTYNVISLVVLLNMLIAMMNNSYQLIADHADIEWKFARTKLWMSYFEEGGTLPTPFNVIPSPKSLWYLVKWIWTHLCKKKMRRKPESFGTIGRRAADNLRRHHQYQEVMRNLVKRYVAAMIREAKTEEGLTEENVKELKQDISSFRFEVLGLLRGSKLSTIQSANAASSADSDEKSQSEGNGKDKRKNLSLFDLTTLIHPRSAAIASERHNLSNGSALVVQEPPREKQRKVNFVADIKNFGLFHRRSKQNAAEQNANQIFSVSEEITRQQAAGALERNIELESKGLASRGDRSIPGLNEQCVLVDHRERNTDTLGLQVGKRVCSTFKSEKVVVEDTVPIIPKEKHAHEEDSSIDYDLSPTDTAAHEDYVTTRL

[25] = cells; assay type: functional
[26] = target: Cytochrome P450 2C19 (Homo sapiens, UniProt P33261); assay: Cytochrome panel assay with activity outcomes. Panel member name: p450-cyp2c19 Compounds with AC50 equal or less than 10 uM are considered active; assay type: functional; settings: read-out: AC50
Sequence of Cytochrome P450 2C19 (P33261 whole entry): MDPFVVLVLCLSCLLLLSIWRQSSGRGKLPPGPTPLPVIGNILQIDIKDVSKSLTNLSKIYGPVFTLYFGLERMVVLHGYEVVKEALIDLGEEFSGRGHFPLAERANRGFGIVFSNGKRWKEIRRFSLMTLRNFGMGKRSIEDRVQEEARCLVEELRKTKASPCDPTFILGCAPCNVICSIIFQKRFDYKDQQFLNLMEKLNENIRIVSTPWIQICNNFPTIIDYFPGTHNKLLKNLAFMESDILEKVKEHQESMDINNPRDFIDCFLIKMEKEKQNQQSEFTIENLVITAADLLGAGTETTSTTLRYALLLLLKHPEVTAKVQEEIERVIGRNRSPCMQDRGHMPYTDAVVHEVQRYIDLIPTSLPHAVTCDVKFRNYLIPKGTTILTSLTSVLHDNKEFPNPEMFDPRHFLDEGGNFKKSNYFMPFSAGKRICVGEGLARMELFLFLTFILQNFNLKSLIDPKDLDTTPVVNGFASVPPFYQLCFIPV

[27] = target: Cytochrome P450 3A4 (Homo sapiens, UniProt P08684);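 note: CYP3A4 tested as one member of a cytochrome P450 panel screen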
Sequence of Cytochrome P450 3A4 (P08684 whole entry): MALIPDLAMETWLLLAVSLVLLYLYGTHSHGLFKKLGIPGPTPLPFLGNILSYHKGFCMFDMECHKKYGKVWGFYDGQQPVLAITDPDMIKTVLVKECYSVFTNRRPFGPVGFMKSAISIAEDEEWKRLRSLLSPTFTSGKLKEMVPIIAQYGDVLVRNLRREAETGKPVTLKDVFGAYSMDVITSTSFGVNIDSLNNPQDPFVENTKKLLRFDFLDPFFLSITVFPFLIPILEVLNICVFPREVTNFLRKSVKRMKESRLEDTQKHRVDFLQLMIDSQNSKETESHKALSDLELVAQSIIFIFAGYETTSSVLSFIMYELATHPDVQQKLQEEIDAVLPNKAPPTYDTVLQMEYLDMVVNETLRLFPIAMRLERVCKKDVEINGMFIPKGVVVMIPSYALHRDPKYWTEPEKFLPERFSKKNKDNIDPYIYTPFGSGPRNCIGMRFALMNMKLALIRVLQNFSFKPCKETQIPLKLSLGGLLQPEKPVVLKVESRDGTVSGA

[28] = target: Cytochrome P450 2C9 (Homo sapiens, UniProt P11712)
Sequence of Cytochrome P450 2C9 (P11712 whole entry): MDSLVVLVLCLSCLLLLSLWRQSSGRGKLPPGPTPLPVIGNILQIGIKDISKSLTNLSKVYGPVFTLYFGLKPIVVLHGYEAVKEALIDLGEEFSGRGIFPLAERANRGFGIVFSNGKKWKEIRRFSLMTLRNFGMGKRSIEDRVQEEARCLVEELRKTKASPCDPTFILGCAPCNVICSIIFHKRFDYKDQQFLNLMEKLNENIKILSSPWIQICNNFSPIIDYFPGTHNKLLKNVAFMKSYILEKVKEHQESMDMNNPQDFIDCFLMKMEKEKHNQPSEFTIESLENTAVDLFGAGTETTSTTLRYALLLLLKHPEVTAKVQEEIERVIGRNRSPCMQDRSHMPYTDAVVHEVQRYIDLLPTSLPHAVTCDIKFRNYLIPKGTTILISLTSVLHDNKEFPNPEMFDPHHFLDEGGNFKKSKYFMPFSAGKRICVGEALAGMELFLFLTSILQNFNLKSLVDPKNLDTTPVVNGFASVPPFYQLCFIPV

[29] = target: T4, Short transient receptor potential channel 4; assay: block of DAMGO-driven TRPC4 calcium entry – cell-based, HEK293 TRPC4/mu-opioid, Fluo-4 calcium, dose response (AID 434942); assay type: functional;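 note: potency of inhibitors blocking the TRPC4 calcium response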

C[n+]1ccccc1/C=C/c1ccc(F)c(F)c1
IC50 [1]: 97.9 µM (active) | IC50 [2]: 4.32 µM (active)

Oc1nc(S)nc2c1C(c1ccc(Br)cc1)c1c(O)nc(S)nc1O2
AC50 [3]: > 350 µM (inactive)

O=C(Nc1nc2ccccc2n1Cc1ccc(Cl)cc1)c1ccccc1
IC50 [4]: > 20 µM (inactive) | IC50 [5]: > 20 µM (inactive) | IC50 [6]: > 20 µM (inactive) | IC50 [7]: > 20 µM (inactive)

O=S(=O)(c1ccccc1)N(CC(O)CN1CCCCC1)c1ccccc1 (stereo not given)
IC50 [8]: > 100 µM (inactive)

CC1=C(C(=O)OC(C)C)C(c2ccco2)NC(=O)N1 (stereo not given)
IC50 [1]: 34.7 µM (active) | IC50 [2]: 42.8 µM (active)

CCCCCCC(=O)NN/C=C1\C(=O)NC(=S)N(C(C)CC)C1=O (stereo not given)
EC50 [9]: 5.17 µM (active) | EC50 [10]: > 150 µM (not active) | EC50 [11]: 9.29 µM (active) | IC50 [12]: > 66.6 µM (inactive)

c1ccc(-c2nn3c(Cn4cnc5ccccc54)nnc3s2)cc1
CC50 [13]: 42.6 µM (active) | IC50 [14]: > 100 µM (inactive) | IC50 [15]: 5.46 µM (active)

COC(=O)c1[nH]c2ccc(C)cc2c1NC(=O)CCN1CCN(Cc2ccc3c(c2)OCO3)CC1
IC50 [8]: > 100 µM (inactive)

COc1ccc(-c2ccc3oc(-c4ccc(OC)cc4)c(-c4ccc(OC)cc4)c3c2)cc1
AC50 [16]: 18 µM (active)

Cc1cc(C)n(-c2nc(SCCN(C)C)c3c4c(sc3n2)CCCC4)n1
EC50 [17]: 56 µM (active) | EC50 [18]: > 120 µM (not active) | EC50 [19]: > 120 µM (not active) | EC50 [20]: > 120 µM (not active) | CC50 [21]: 13.5 µM (active) | CC50 [22]: 19.4 µM (active) | CC50 [23]: 6.93 µM (active) | EC50 [24]: 1.88 µM (active) | IC50 [25]: 9.58 µM (active) | AC50 [26]: 31.6 µM (inconclusive) | AC50 [27]: 17.8 µM (inconclusive) | AC50 [28]: 15.8 µM (inconclusive)

CN1CCN(c2ccc(NC(=O)c3ccc(-c4ccc(Cl)cc4)o3)cc2)CC1
CC50 [21]: 17.6 µM (active) | EC50 [29]: 0.0667 µM (active) | CC50 [22]: 8.12 µM (active) | CC50 [23]: 17.2 µM (active) | IC50 [25]: 3.04 µM (active)

Cc1ccc2cccc(N=Cc3c(C)[nH]n(-c4ccccc4)c3=O)c2n1
IC50 [4]: > 20 µM (inactive) | IC50 [5]: > 20 µM (inactive) | IC50 [6]: > 20 µM (inactive) | IC50 [7]: > 20 µM (inactive)
